One data set addresses T1, Carboxypeptidase A (CPA) (Homo sapiens, UniProt P15085).
T1 sequence (P15085 111-419): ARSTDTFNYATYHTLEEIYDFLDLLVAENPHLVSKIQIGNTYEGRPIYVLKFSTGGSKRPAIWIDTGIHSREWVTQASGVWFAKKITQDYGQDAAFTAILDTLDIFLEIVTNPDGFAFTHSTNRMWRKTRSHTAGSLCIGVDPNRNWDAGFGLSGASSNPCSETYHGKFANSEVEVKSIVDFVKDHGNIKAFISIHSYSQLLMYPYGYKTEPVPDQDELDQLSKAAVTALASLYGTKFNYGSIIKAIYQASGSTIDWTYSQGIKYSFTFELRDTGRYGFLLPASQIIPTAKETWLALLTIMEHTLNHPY
Nature of the data set: Carboxypeptidase A in vitro assay (western blot). In kind it is biochemical. To be noted: selectivity control. The text has this: FIG. 6: In vitro detyrosination assays using recombinant human enzymes in absence or presence of SVC_01 or BzISA (specific carboxypeptidase A inhibitor). […] Reactions were stopped using SDS-page laemli buffer and loaded for western blotting using specific antibodies.
Below, the criteria for selection are detailed: • Protease with documented carboxypeptidase activity towards alpha tubulin. Carboxypeptidase A hydrolyzes peptide bonds of C-terminal residues with aromatic or aliphatic side-chains (FIG. 6). • Cysteine protease with preference for non-aromatic residues at P1′. The optimum recognition site for Human rhinovirus (HRV) type 14 3C protease is LEVLFQ/GP, with a glycine at the P1′ position (FIG. 7). • Cysteine protease with preference for aromatic residues at P1′ site. Alike VASH, cathepsin B prefers an aromatic residue at the P1′ position. This is considered to be our best control for specificity (FIG. 8)

In data set [1] the test system is primary cardiomyocytes isolated from Sprague Dawley rats. Nature of the data set: Western blot of detyrosinated tubulin in primary cardiomyocytes. Type of data set: cell-based, rat. As to the method:
A) Representative western blot and B) quantification of detyrosinated and alpha-tubulin levels after 2 hrs 37° C. incubation of freshly isolated adult rat cardiomyocytes with compound SVC_01 at indicated concentrations. N=4 Sprague Dawley rats.
Primary adult ventricular cardiac myocytes were isolated from 6 to 8 weeks old Sprague Dawley rats or 20 to 30 weeks old WKY, ZSF1 lean and obese rats. Briefly, the heart was removed from a rat anesthetized under isoflurane and retrograde-perfused on a Langendorff apparatus with a collagenase solution. The digested heart was then minced and triturated using a glass pipette. The resulting supernatant was separated and centrifuged at 300 revolution per minute (rpm) to isolate cardiomyocytes which were then resuspended in rat cardiomyocyte media at low density. Cardiomyocytes were cultured at 37° C. and 5% CO2 with 25 μmol/L of cytochalasin D. Rat cardiomyocyte media: medium 199 (Thermo Fisher 115090) supplemented with 1× Insulin-transferrin-selenium-X (Gibco 51500056), 1 μg μl^−1 primocin (Invivogen ant-pm-1), 20 mmol/L HEPES at pH 7.4 and 25 μmol/L cytochalasin D.
For whole cell protein extraction, isolated rat cardiomyocytes were lysed in RIPA buffer (Cayman #10010263) supplemented with protease and phosphatase Inhibitor cocktail (Cell Signaling #5872S) on ice for 1 hour. […] All samples were run in duplicates and analyzed in reference to GAPDH.

Another data set deals with Sprague Dawley rats. Nature of the data set: Myocardial tubulin detyrosination after IV injection, western blot. To be noted: single injection IV, 8 weeks old Sprague Dawley rats. Type of data set: in vivo, rat. The text has this: B) Quantification of detyrosination levels (D1/alpha-tubulin ratio) in vehicle (n=4) and VASHi-treated rats (n=3).
For efficacy testing we presented SVC_01 to primary cardiomyocytes isolated from Sprague Dawley rats. […] Next, we performed functional studies by measuring key cardiomyocytes parameters including resting, fractional shortening, contraction time and relaxation time. […] The ZSF1 rat model is a hybrid rat obtained by a cross between a ZDF female and an SHHF male rat. This model is an established HFpEF rat model. Obese ZSF1 (O—ZSF1) hybrid rats are compound heterozygote with two different mutated alleles coding defective leptin receptor, resulting in loss of the receptor function. Thus, these animals have increased food intake and develop pronounced features of obesity, diabetes, and resultant HFpEF. […] We performed a western blot analysis from myocardial tissue prepared from Wistar Kyoto (WKY), ZSF1 lean and ZSF1 obese rats (FIG. 14). In line with previously published data of the role of microtubule densification and tubulin detyrosination, we found an increase in both total tubulin as well as detyrosinated tubulin in myocardial tissue of ZSF1-obese rats compared to the lean and WKY controls. […] Similar results were observed by assessment of the transverse stiffness. […]

Experimental findings from patent US20260199284A1, “SPECIFIC VASH COMPOUNDS (SVC) INHIBITORS FOR HEART DISEASES” (MT ACT, priority 2023, published 2026) are described below.

The structures appear in SMILES notation.

Description for human cells: FIG. 9: Cell viability assay comparing microtubule binding drugs (Parthenolide, Taxol) to SVC_01 exposure on human cells. The MTT assay is used to measure cellular metabolic activity as an indicator of cell viability, proliferation and cytotoxicity. This colorimetric assay is based on the reduction of a yellow tetrazolium salt (3-(4,5-dimethylthiazol-2-yl)-2,5-diphenyltetrazolium bromide or MTT) to purple formazan crystals by metabolically active cells.
Next, we performed safety pharmacology experiments and head-to-head compared the cellular toxicity of SVCs on human cells.

`O=C(O)CCC[C@H](NC(=O)[C@H]1O[C@@H]1C(=O)C[C@@H](Cc1ccc(OCc2ccccc2)cc1)C(=O)O)C(=O)NCCc1ccccc1` [SVC_01]: at Carboxypeptidase A (CPA), the “inhibition of Carboxypeptidase A” value is given as “No cross reactions observed”. For the same molecule, the “reduction of tubulin detyrosination” value in data set [1] (2 hours incubation, Sprague Dawley rat cardiomyocytes) is about 80%. Also, in data set [1] (2 hrs 37° C., indicated concentrations), the “reduction in detyrosination” value is reported as “Dose-dependent reduction in detyrosination”. For the same molecule, in the data set with human cells, the “cell viability / proliferation (MTT)” value is given as “does not impact cell proliferation”.
On to `CCOC(=O)[C@H](Cc1ccc(OCC)cc1)NC(=O)[C@H]1O[C@@H]1C(=O)N[C@@H](Cc1ccc(OCC)cc1)C(=O)OCC` [SVC_02], for which the “detyrosinated tubulin in myocardial tissue” value in the data set on Sprague Dawley rats was “efficient reduction in detyrosinated tubulin”.
